Patent US6274348A, “Methods for the preparation of positively charged proteins” (XOMA Corporation, priority 1997, dated 2001)

Experiments:
[1] = target: T1, rBPI(1-191)-IgG fusion protein (human BPI residues 1-191 fused to human IgG1 heavy chain hinge-CH2-CH3) (Homo sapiens, UniProt P01857+P17213); assay: direct 3H-heparin binding assay; conditions: highest 3H heparin concentration tested 2.5 μM; protein at 100 pmol/well, one hour at 4° C.
T1 construct: an rBPI(1-191)-IgG fusion protein was added to the wells of a 96-well plate; made in house; host or cells: CHO-DG44
T1 sequence (P17213+P01857 fused): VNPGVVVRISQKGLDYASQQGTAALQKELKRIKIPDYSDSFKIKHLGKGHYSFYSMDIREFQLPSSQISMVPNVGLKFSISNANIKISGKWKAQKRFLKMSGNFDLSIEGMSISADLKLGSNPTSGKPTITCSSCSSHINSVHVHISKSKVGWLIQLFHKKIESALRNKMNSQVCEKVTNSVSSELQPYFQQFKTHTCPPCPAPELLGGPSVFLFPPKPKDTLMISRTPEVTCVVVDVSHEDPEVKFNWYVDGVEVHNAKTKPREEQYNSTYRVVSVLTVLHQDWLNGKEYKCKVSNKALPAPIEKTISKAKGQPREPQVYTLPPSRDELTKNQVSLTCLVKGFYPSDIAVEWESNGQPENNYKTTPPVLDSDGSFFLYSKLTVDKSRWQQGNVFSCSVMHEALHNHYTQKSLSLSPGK
From the text: (§1) A direct ^3 H-heparin binding assay was utilized to analyze the comparative binding of rBPI(1-199) and rBPI-Ig fusions to heparin. The assay was based on the ability of a derivatized nylon membrane to bind proteins with high capacity. Such a membrane has been incorporated into the bottom of 96-well microtiter plates by Millipore Corp. (Bedford Mass.) (MULTISCREEN IP plates) and may be punched out of each well for scintillation counting.
(§2) To conduct the assay, rBPI(1-199) or an rBPI(1-191)-IgG fusion protein was added to the wells of a 96-well plate at a concentration of 100 pmol/well diluted with phosphate buffered saline (PBS), pH 7.4 nylon membrane. Upon absorption to the membrane, the wells were blocked with a blocking buffer comprising 0.1% bovine serum albumin (BSA) in PBS. Serial dilutions of ^3 H heparin (DuPont, NEN, Wilmington, Del.) were made from 4-5 μg/ml in the blocking buffer and incubated in the wells coated with either rBPI(1-199) and rBPI(1-191)-IgG for one hour at 4° C. After one hour, unbound heparin was aspirated and the wells were washed three times with blocking buffer, dried, and removed for quantitation of bound ^3 H-heparin by liquid scintillation counting.

[2] = target: T2, rBPI(1-199), first 199 N-terminal amino acids of mature human BPI (SEQ ID NOS: 1 and 2) (Homo sapiens, UniProt P17213); assay: direct 3H-heparin binding assay; conditions: protein adsorbed to nylon membrane at 100 pmol/well, 3H heparin dilutions, one hour at 4° C., PBS pH 7.4 with 0.1% BSA; read-out: apparent affinity (Kd) for heparin
T2 construct: made in house
T2 sequence (P17213 32-230): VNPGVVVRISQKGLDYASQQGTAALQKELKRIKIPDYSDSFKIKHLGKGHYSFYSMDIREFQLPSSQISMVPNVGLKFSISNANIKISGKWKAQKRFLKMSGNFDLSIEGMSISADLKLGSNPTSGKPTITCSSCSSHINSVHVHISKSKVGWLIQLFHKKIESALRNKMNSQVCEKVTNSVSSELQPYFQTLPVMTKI
From the text: as §1, §2

saturation of 3H heparin binding [1]: did not reach saturation
Kd [2]: 114 ± 30 nM
Substance: heparin
